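The compound was tested at five concentrations on cells cultured in 96-well plates, with a 48-hour exposure period. GI50 is the concentration that inhibits growth by half. TGI: total growth inhibition.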
Assays:
Test in all cases: NCI anticancer screen, dose series, 48 h
[1] = test system: RPMI-8226 leukemia
[2] = test system: COLO 205 colon
[3] = test system: NCI-H226 lung
[4] = test system: HOP-62 NSCLC
[5] = test system: SK-MEL-28 melanoma
[6] = test system: HCT-116 colon
[7] = test system: TK-10 renal
[8] = test system: A549 NSCLC
[9] = test system: SNB-19 CNS
[10] = test system: HOP-92 NSCLC

SMILES | GI50 [1] [µM] | TGI [1] [µM] | GI50 [2] [µM] | TGI [2] [µM] | GI50 [3] [µM] | TGI [3] [µM] | GI50 [4] [µM] | TGI [4] [µM] | GI50 [5] [µM] | TGI [5] [µM] | GI50 [6] [µM] | TGI [6] [µM] | GI50 [7] [µM] | TGI [7] [µM] | GI50 [8] [µM] | TGI [8] [µM] | GI50 [9] [µM] | TGI [9] [µM] | GI50 [10] [µM] | TGI [10] [µM]
COc1cc(/C(C#N)=C/c2ccc3c(c2OC)OCO3)cc2c1OCO2 | 0.146 | 33.2 | 0.0941 | 3.14 | 0.603 | 36.4 | 0.138 | 14.3 | 1.24 | > 100 | 0.0492 | > 35.7 | 0.982 | 37.2 | 0.0879 | > 100 | 0.236 | 20.4 | 0.211 | 15.7
Cc1ncc(CN=Cc2ccc(Cl)cc2)c(N)n1 |  | > 100 |  | > 100 |  | > 100 |  | > 100 |  | > 100 |  | > 100 |  | > 100 |  | > 100 |  | > 100 |  | > 100
CS(=O)(=O)CCNCc1nc(-c2ccc3ncnc(Nc4ccc(F)c(Cl)c4)c3c2)cs1 | > 21.4 | > 25 | > 20.5 | > 25 | > 18.1 | > 25 | > 24.1 | > 25 | > 20.2 | > 25 | > 23.9 | > 25 | 0.232 | > 25 | 15.8 | > 25 | > 25 | > 25 | 9.82 | > 25
COc1ccc2nc(N/N=C(\C)c3ccccn3)cc(C)c2c1 | 0.369 | 1.36 | 0.024 | 1.15 | 0.222 | 1 | 0.259 | 1.11 | 0.445 | 1.68 | 0.363 | 1.13 | 0.207 | 0.991 | 0.315 | 3.24 | 0.382 | 2.12 | 0.169 | 2.55
COc1cc(CCc2ccc(OCCN(C)C)cc2)cc(OC)c1OC |  | > 100 |  | 38.9 |  | > 100 |  | > 100 |  | > 100 |  | > 100 |  | > 100 |  | > 100 |  | > 100 |  | > 100
Cc1nc2c(nc1C)C(=O)c1cc(O)ccc1C2=O |  | > 79.7 |  | 45.2 |  | > 100 |  | > 100 |  | > 100 |  | > 100 |  | > 100 |  | > 100 |  | > 100 |  | > 100
Cc1cc(-c2ncc(CC(=O)Nc3ccc(-c4cnccn4)cn3)cc2C)ccn1 | 19.2 | > 100 | 42.8 | > 100 | 13.7 | > 100 | 33.5 | > 100 | 28.2 | > 100 | 49 | > 100 | 16.4 | > 100 | 36.7 | > 100 | 34.6 | > 100 | 12 | 81.8
O=C1NCc2ccc3c(-c4cccc(Cl)c4)c[nH]c3c21 | 0.257 | 49 | 0.297 |  | 28.9 | > 50 | 0.324 | > 50 | 2.21 | > 50 | 0.217 | 9.07 | 7.12 | > 50 | 0.438 | > 50 | 0.29 | > 50 | 3.22 | > 50
C=C1C(=O)O[C@H]2[C@H]1CC/C(Cn1cc(CNC(=O)Cc3cn(C(=O)c4ccc(Cl)cc4)c4ccc(OC)cc34)nn1)=C\CC[C@@]1(C)O[C@@H]21 | 1.59 | 5.21 | 2.04 | 4.22 | 1.76 | 3.41 | 3.91 | 15.1 | 1.62 | 3.07 | 1.19 | 2.55 | 1.77 | 3.24 | 12.7 | 29.6 | 2.14 | 4.77 | 1.21 | 2.65
COc1ccc2c(c1)[nH]c(=O)c1c3cc(C)c(C)cc3cn21 | < 0.01 | 0.0656 | < 0.0134 | 0.0248 | 0.389 | 21.7 | < 0.0185 | 1.9 | < 0.01 | 1.91 | < 0.01 | 0.516 | 0.32 | 1.27 | < 0.0185 | 1.32 | < 0.0226 | 4.66 | 0.485 | 2.32
CCOc1ccccc1NC(=O)C(=O)CC(=O)c1c(C)n([O-])c2ccccc2[n+]1=O |  | > 100 |  | > 100 |  | > 100 |  | > 100 |  | > 100 |  | > 100 |  | > 100 |  | > 100 |  | > 100 |  | > 100
N#Cc1c(-c2nc3ccccc3s2)c(=O)oc2cc(O)ccc12 |  | > 100 |  | 30.8 |  | > 100 |  | 57.3 |  | > 100 |  | > 100 |  | > 100 |  | > 100 |  | > 100 |  | 46.3
COc1cc(-c2nn(-c3ccc(NC(=O)c4ccc(Cl)c(Cl)c4)cc3)cc2-c2ccncc2)ccc1Cl | 3.03 | 14.1 | 3.62 | > 100 | > 100 | > 100 | 2.28 | 7.51 | 40.3 | > 100 | 4.6 | > 100 | > 100 | > 100 | > 100 | > 100 | 26.7 | > 100 | > 100 | > 100
CCN(CC)CCOc1nc2ccc(OC)cc2c2c1-c1ccc(OC)cc1C2=O | 0.601 | 2.24 | 0.546 | 1.93 | 0.87 | 3.06 | 1.33 | 6.19 | 1.81 | 3.24 | 0.368 | 1.64 | 1.38 | 2.95 | 0.387 | 1.59 | 0.922 | 3.19 | 0.786 | 5.36
